IC50 data for 25 compounds are collected here from patent US10039753B2, “Imidazo[4,5-c]quinoline and imidazo[4,5-c][1,5]naphthyridine derivatives as LRRK2 inhibitors” (Pfizer Inc., priority 2015, dated 2018).

For test [1], the target named is mutant G2019S LRRK2 (Homo sapiens, UniProt Q5S007, G2019S). Put plainly: LRRK2 Assay, Format 2 (Lantha Screen), G2019S mutant. Further details: purchased Invitrogen PV4881. The test is classed as biochemical. To be noted: geometric mean of 2-4 determinations unless otherwise indicated (a: >=5; b: single determination); read-out: LRRK2, Format 2 G2019S IC50. On the procedure:
(§1) LRRK2 kinase activity was measured using Lantha Screen technology from Invitrogen. GST-tagged truncated LRRK2 from Invitrogen (Cat # PV4874) was incubated with a fluorescein-labeled peptide substrate based upon ezrin/radixin/moesin (ERM), also known as LRRKtide (Invitrogen cat # PR8976A), in the presence of a dose response of compound. Upon completion, the assay was stopped and detected with a terbium labeled anti-phospho-ERM antibody (Invitrogen, cat # PR8975A). […] Using Echo acoustic dispensing, 60 nL of compound was transferred to a low volume Corning 384-well assay plate. 3 μL of a working solution of substrate (200 nM LRRKtide, […]) prepared in assay buffer (50 mM HEPES, pH 7.5, 3 mM MgCl2, with 2 mM DTT and 0.01% Brij35 added fresh) was added to the 60 nL compound assay plate. The kinase reaction was started with […] of a working solution of LRRK2 enzyme at a concentration of […]. The final reaction concentrations were 100 nM LRRKtide, […], […] LRRK2 enzyme and a compound dose response with a top dose of 3 mM. The reaction was allowed to progress at room temperature for 30 minutes and then stopped with the addition of […] of detection buffer (20 mM Tris pH 7.6, 0.01% NP-40, 6 mM EDTA with 2 nM terbium labeled anti-phospho-ERM). After an incubation of 1 hour at room temperature, the plate was read on an Envision with an excitation wavelength of 340 nm and a reading emission at both 520 nm and 495 nm. The ratio of the 520 nm and 495 nm emission was used to analyze the data. Inhibition of mutant G2019S LRRK2 (Invitrogen cat # PV4881) was measured in the exact same method. All final concentrations of substrate ATP and enzyme were the same.

For test [2], the target named is T1, GST-tagged truncated LRRK2 (Homo sapiens, UniProt Q5S007).
T1 construct: GST-tagged truncated LRRK2 from Invitrogen (Cat # PV4874); GST; purchased Invitrogen PV4874
T1 sequence (Q5S007 970-2527 limits assumed): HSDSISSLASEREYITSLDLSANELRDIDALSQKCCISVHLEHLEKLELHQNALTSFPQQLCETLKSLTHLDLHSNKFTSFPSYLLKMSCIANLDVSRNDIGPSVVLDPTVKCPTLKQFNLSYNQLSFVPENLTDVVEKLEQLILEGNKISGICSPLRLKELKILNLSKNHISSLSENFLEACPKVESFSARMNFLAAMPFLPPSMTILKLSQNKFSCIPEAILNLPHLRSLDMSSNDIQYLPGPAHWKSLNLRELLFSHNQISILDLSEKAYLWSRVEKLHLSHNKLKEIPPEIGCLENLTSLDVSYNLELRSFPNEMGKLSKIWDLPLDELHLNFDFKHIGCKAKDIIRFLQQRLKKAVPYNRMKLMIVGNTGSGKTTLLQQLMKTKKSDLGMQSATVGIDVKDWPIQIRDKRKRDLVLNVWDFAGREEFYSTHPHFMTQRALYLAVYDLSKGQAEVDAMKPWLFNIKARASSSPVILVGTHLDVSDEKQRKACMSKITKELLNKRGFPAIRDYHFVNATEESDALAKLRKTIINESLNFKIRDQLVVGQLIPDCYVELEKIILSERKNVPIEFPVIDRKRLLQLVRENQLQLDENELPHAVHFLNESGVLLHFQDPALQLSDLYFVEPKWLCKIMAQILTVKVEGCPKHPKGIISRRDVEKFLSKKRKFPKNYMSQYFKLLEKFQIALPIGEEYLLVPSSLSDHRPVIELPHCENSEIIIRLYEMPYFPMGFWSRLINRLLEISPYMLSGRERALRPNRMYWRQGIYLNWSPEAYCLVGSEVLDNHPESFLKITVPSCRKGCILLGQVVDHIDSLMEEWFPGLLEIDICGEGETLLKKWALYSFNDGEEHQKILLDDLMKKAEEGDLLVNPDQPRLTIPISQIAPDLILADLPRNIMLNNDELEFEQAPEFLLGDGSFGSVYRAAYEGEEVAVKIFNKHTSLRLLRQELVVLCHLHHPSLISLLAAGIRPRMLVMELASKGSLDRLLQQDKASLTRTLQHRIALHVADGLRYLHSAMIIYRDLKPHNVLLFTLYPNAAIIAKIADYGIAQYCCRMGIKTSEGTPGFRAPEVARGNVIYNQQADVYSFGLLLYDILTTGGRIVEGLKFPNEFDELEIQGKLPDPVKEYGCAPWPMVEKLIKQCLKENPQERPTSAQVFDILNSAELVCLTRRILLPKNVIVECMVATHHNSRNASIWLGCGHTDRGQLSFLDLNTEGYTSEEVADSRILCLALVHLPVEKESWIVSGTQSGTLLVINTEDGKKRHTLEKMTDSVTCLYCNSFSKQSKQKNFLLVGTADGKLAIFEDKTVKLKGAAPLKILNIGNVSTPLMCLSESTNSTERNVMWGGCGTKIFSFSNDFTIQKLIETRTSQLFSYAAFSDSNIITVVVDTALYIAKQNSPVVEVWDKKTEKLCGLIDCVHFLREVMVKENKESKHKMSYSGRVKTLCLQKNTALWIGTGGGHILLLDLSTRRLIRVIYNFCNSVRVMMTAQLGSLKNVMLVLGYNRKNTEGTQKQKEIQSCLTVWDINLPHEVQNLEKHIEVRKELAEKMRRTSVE
The experiment in a line: LRRK2 Assay, Format 2 (Lantha Screen), WT. The test is classed as biochemical. To be noted: geometric mean of 2-4 determinations unless otherwise indicated (a: >=5; b: single determination). The method, then: as §1

pIC50: −log10 of the molar value. Where a name gives a salt, the structure may show the parent alone.

mutant G2019S LRRK2, sequence (Q5S007 970-2527 G2019S limits assumed): as the sequence (Q5S007 970-2527 limits assumed) above, with G1050S counted along it

For `Cc1cc(Cc2nc3cnc4ccc(C#N)cc4c3n2[C@H]2CCCC[C@H]2O)no1` (racemic) [Example 242, 1-(cis-2-hydroxycyclohexyl)-2-[(5-methyl-1,2-oxazol-3-yl)methyl]-1H-imidazo[4,5-c]quinoline-8-carbonitrile, formate salt], the results for the pIC50 in test [1] and in test [2] were 6.92 and 6.91, respectively.

Consider `Cc1cc(Cc2nc3cnc4ccc(C#N)cc4c3n2[C@H]2CCC[C@H]2F)no1` (racemic) [Example 245, 1-(cis-2-fluorocyclopentyl)-2-[(5-methyl-1,2-oxazol-3-yl)methyl]-1H-imidazo[4,5-c]quinoline-8-carbonitrile, formate salt], for which the pIC50 is 7.73 in test [1] and 7.84 in test [2]. `Cc1cn(Cc2nc3cnc4ccc(Cl)cc4c3n2[C@H]2CC[C@@H](F)C2)nn1` (single isomer, unassigned) [Example 93, 8-Chloro-1-(cis-3-fluorocyclopentyl)-2-[(4-methyl-1H-1,2,3-triazol-1-yl)methyl]-1H-imidazo[4,5-c]quinoline]: the pIC50 in test [1] is 8.09; in test [2], 8.25.

As for `Cc1cnn(Cc2nc3cnc4ccc(C#N)cc4c3n2[C@H]2CC[C@@H](F)C2)c1` (single isomer, unassigned) [Example 94, 1-[cis-3-Fluorocyclopentyl]-2-[(4-methyl-1H-pyrazol-1-yl)methyl]-1H-imidazo[4,5-c]quinoline-8-carbonitrile], the values for the pIC50 in test [1] and in test [2] were 8.22 and 8.20, respectively. Turning to `Cc1cc(Cc2nc3cnc4ccc(C#N)cc4c3n2[C@@H]2CC[C@H](F)C2)no1` (single isomer, unassigned) [Example 97], the pIC50 in test [1] was 8.11; in test [2] it was 8.29. Turning to `C[C@@H]1C[C@H](n2c(C(F)c3ccon3)nc3cnc4ccc(Cl)cc4c32)CCO1` (single isomer, unassigned) [Example 237], the negative logarithm of the IC50 (pIC50) in test [1] is 8.41; in test [2], 8.40. Consider `C[C@@H]1C[C@H](n2c(C(F)c3ccon3)nc3cnc4ccc(Cl)cc4c32)CCO1` (single isomer, unassigned) [Example 238], for which the pIC50 was 8.42 in test [1] and 8.41 in test [2]. For the compound `Cc1cn(Cc2nc3cnc4ccc(Cl)cc4c3n2[C@H]2CC[C@@H](F)C2)nn1` (single isomer, unassigned) [Example C55, 8-chloro-1-(cis-3-fluorocyclopentyl)-2-[(4-methyl-1H-1,2,3-triazol-1-yl)methyl]-1H-imidazo[4,5-c]quinoline], the pIC50 in test [1] is 7.64; in test [2], 7.74.

For the compound `Cc1cnn(Cc2nc3cnc4ccc(C#N)cc4c3n2[C@H]2CC[C@@H](F)C2)c1` (single isomer, unassigned) [Example C58, 1-[cis-3-fluorocyclopentyl]-2-[(4-methyl-1H-pyrazol-1-yl)methyl]-1H-imidazo[4,5-c]quinoline-8-carbonitrile], the pIC50 in test [1] is 7.59; in test [2] it was 7.66. Turning to `Cc1cc(Cc2nc3cnc4ccc(C#N)cc4c3n2[C@H]2CC[C@@H](F)C2)no1` (single isomer, unassigned) [Example C66], the pIC50 in test [1] was 7.37; in test [2], 7.53. For `Cc1cc(Cc2nc3cnc4ccc(C#N)cc4c3n2[C@@H]2CC[C@H](F)C2)on1` (single isomer, unassigned; ent-1) [Example 118, 1-(cis-3-fluorocyclopentyl)-2-[(3-methyl-1,2-oxazol-5-yl)methyl]-1H-imidazo[4,5-c]quinoline-8-carbonitrile, ENT-1], in that order: 8.21 and 8.38. Turning to `COCc1cn(Cc2nc3cnc4ccc(C#N)cc4c3n2[C@@H]2CC[C@H](F)C2)nn1` (single isomer, unassigned; ent-1) [Example 132, 1-(cis-3-fluorocyclopentyl)-2-{[4-(methoxymethyl)-1H-1,2,3-triazol-1-yl]methyl}-1H-imidazo[4,5-c]quinoline-8-carbonitrile, ENT-1], the pIC50 in test [1] is 7.97; in test [2] it was 8.13. `Cc1cc(Cc2nc3cnc4ccc(C#N)cc4c3n2C2CCCC2(F)F)no1` (single isomer, unassigned; ent-1) [Example 143, 1-(2,2-difluorocyclopentyl)-2-[(5-methyl-1,2-oxazol-3-yl)methyl]-1H-imidazo[4,5-c]quinoline-8-carbonitrile, ENT-1]: the pIC50 in test [2] was 7.27. For `Cc1cc(Cc2nc3cnc4ccc(C#N)cc4c3n2[C@@H]2CCC[C@@H]2F)no1` (single isomer, unassigned; ent-1) [Example 146, 1-(cis-2-fluorocyclopentyl)-2-[(5-methyl-1,2-oxazol-3-yl)methyl]-1H-imidazo[4,5-c]quinoline-8-carbonitrile, ENT-1], the pIC50 in test [1] is 7.52; in test [2] it was 7.75.

For the compound `Cc1nn2cc(Cc3nc4cnc5ccc(C#N)cc5c4n3[C@@H]3CC[C@H](F)C3)nc2s1` (single isomer, unassigned; ent-1) [Example 168, 1-(cis-3-fluorocyclopentyl)-2-[(2-methylimidazo[2,1-b][1,3,4]thiadiazol-6-yl)methyl]-1H-imidazo[4,5-c]quinoline-8-carbonitrile, ENT-1], the pIC50 in test [1] was 7.94; in test [2] it was 8.13. On the same counts, the results for `N#CCc1nc2cnc3ccc(F)cc3c2n1[C@@H]1CC[C@H](F)C1` (single isomer, unassigned; ent-1) [Example 170, {8-fluoro-1-(cis-3-fluorocyclopentyl)-1H-imidazo[4,5-c]quinolin-2-yl}acetonitrile, ENT-1] are 6.97 and 7.19.

Take `CC1(C)CC(n2c(Cc3cc(C(F)(F)F)on3)nc3cnc4ccc(C#N)cc4c32)CCO1` (single isomer, unassigned; ent-1) [Example 176, 1-(2,2-dimethyltetrahydro-2H-pyran-4-yl)-2-{[5-(trifluoromethyl)-1,2-oxazol-3-yl]methyl}-1H-imidazo[4,5-c]quinoline-8-carbonitrile, ENT-1]: the values for the pIC50 in test [1] and in test [2] were 7.90 and 7.89, respectively. For `Cc1cn(Cc2nc3cnc4ccc(C#N)cc4c3n2C2CCCC2(F)F)nn1` (single isomer, unassigned; ent-1) [Example 196, 1-(2,2-difluorocyclopentyl)-2-[(4-methyl-1H-1,2,3-triazol-1-yl)methyl]-1H-imidazo[4,5-c]quinoline-8-carbonitrile, ENT-1], the pIC50 in test [1] was 7.80; in test [2], 7.73. On to `N#Cc1ccc2ncc3nc(Cn4cc(C(F)(F)F)cn4)n([C@@H]4CC[C@H](F)C4)c3c2c1` (single isomer, unassigned; ent-1) [Example 201, 1-(cis-3-fluorocyclopentyl)-2-{[4-(trifluoromethyl)-1H-pyrazol-1-yl]methyl}-1H-imidazo[4,5-c]quinoline-8-carbonitrile, ENT-1], for which the pIC50 in test [1] is 7.95; in test [2], 8.13. Compound `Cc1cc(Cc2nc3cnc4ccc(Cl)cc4c3n2CCF)no1` [Example 181, 8-chloro-1-(2-fluoroethyl)-2-[(5-methyl-1,2-oxazol-3-yl)methyl]-1H-imidazo[4,5-c]quinoline] gave a pIC50 in test [2] of 7.00.

Take `FCCn1c(Cc2cnccn2)nc2cnc3ccc(Cl)cc3c21` [Example 182, 8-chloro-1-(2-fluoroethyl)-2-(pyrazin-2-ylmethyl)-1H-imidazo[4,5-c]quinoline]: in test [2], the pIC50 is 7.17. `CCC(F)(F)Cn1c(Cc2noc(C)n2)nc2cnc3ccc(Cl)cc3c21` [Example 185, 8-chloro-1-(2,2-difluorobutyl)-2-[(5-methyl-1,2,4-oxadiazol-3-yl)methyl]-1H-imidazo[4,5-c]quinoline] had a pIC50 in test [2] of 7.14. Consider `CO[C@H]1C[C@H](n2c(Cn3cc(C)nn3)nc3cnc4ccc(Cl)cc4c32)C1` [Example 188, 8-chloro-1-[(1r,3r)-3-methoxycyclobutyl]-2-[(4-methyl-1H-1,2,3-triazol-1-yl)methyl]-1H-imidazo[4,5-c]quinoline], for which the pIC50 in test [2] is 6.96. `C[C@@H]1C[C@H](n2c(Cc3nc(C4CC4)n(C)n3)nc3cnc4ccc(Cl)cc4c32)CCO1` [Example 191, 8-chloro-2-[(5-cyclopropyl-1-methyl-1H-1,2,4-triazol-3-yl)methyl]-1-[(2R,4R)-2-methyltetrahydro-2H-pyran-4-yl]-1H-imidazo[4,5-c]quinoline]: the pIC50 in test [2] is 7.13. In the case of `C[C@@H]1C[C@H](n2c(Cc3cn4c(n3)COCC4)nc3cnc4ccc(Cl)cc4c32)CCO1` [Example 192, 8-chloro-2-(5,6-dihydro-8H-imidazo[2,1-c][1,4]oxazin-2-ylmethyl)-1-[(2R,4R)-2-methyltetrahydro-2H-pyran-4-yl]-1H-imidazo[4,5-c]quinoline], in test [2], the pIC50 is 7.90.

Broadly, the pIC50 is the negative decadic logarithm of the IC50, by convention in mol/L.
